Measured values: the NIST ThermoML archive (doi:10.1016/j.tca.2018.05.007)
“And” between values parts separate entries of the source, which are not always exact repeats. Equal values may be shown once. ± gives the expanded uncertainty stated by the source.

Conditions: Liquid, Rate of evaporation

OCCN(CCO)CCO [triethanolamine]
Conditions | vapor or sublimation pressure
365 K | 0.000835 ± 0.00034 kPa
375 K | 0.002129 ± 0.00086 kPa and 0.002041 ± 0.00083 kPa
385 K | 0.005005 ± 0.002 kPa and 0.004526 ± 0.0018 kPa
395 K | 0.01093 ± 0.0044 kPa and 0.009521 ± 0.0039 kPa
400 K | 0.01404 ± 0.0057 kPa
405 K | 0.02229 ± 0.0091 kPa and 0.01908 ± 0.0077 kPa
410 K | 0.02726 ± 0.011 kPa
415 K | 0.04274 ± 0.017 kPa and 0.03658 ± 0.015 kPa and 0.03733 ± 0.015 kPa
420 K | 0.05078 ± 0.021 kPa
425 K | 0.07739 ± 0.031 kPa and 0.06729 ± 0.027 kPa and 0.06993 ± 0.028 kPa
430 K | 0.09108 ± 0.037 kPa and 0.0987 ± 0.04 kPa and 0.0881 ± 0.036 kPa
435 K | 0.133 ± 0.054 kPa and 0.1191 ± 0.048 kPa and 0.1259 ± 0.051 kPa
440 K | 0.1577 ± 0.064 kPa and 0.1715 ± 0.07 kPa and 0.1578 ± 0.064 kPa
445 K | 0.2176 ± 0.088 kPa and 0.2036 ± 0.083 kPa and 0.2184 ± 0.089 kPa
450 K | 0.2644 ± 0.11 kPa and 0.2908 ± 0.12 kPa and 0.2755 ± 0.11 kPa
455 K | 0.3407 ± 0.14 kPa and 0.3368 ± 0.14 kPa and 0.3662 ± 0.15 kPa
460 K | 0.4694 ± 0.19 kPa [middle of 4 runs]
465 K | 0.5116 ± 0.21 kPa and 0.5424 ± 0.22 kPa and 0.5946 ± 0.24 kPa
470 K | 0.7812 ± 0.32 kPa and 0.7818 ± 0.32 kPa
475 K | 0.9374 ± 0.38 kPa
480 K | 1.165 ± 0.47 kPa and 1.242 ± 0.51 kPa and 1.275 ± 0.52 kPa
490 K | 1.936 ± 0.79 kPa and 2.038 ± 0.83 kPa
500 K | 3.196 ± 1.3 kPa
510 K | 4.926 ± 2 kPa
515 K | 6.077 ± 2.5 kPa
